Consider 15 compounds from patent US7994336B2, “Azetidine compounds as orexin receptor antagonists” (Actelion Pharmaceuticals Ltd., priority 2006, dated 2011).

The target in one assay is T1, human orexin-1 receptor (Homo sapiens, UniProt O43613).
T1 construct: expressed in transfected cells; host or cells: CHO cells (grown under G418 selection)
T1 sequence (O43613 1-425): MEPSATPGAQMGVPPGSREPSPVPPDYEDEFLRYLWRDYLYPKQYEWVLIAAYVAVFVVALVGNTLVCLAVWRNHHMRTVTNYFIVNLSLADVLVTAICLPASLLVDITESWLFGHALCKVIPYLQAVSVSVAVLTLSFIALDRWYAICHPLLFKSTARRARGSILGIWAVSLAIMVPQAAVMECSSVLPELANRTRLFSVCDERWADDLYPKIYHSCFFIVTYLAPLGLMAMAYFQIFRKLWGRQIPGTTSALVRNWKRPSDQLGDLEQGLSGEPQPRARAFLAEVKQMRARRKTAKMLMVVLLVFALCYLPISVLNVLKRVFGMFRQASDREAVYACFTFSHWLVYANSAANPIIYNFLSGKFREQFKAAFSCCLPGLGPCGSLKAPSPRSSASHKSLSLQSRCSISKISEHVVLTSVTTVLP
Kind of assay: Intracellular calcium measurements (FLIPR), orexin receptor antagonistic activity. Format: cell-based. The following applies: CHO cells expressing human orexin-1 receptor; 10 nM orexin-A as agonist; fluo-3 AM calcium signal; read-out: OX1 IC50. How it is done: (§1) The orexin receptor antagonistic activity of the compounds of formula (I) is determined in accordance with the following experimental method.
(§2) Chinese hamster ovary (CHO) cells expressing the human orexin-1 receptor and the human orexin-2 receptor, respectively, are grown in culture medium (Ham F-12 with L-Glutamine) containing 300 μg/ml G418, 100 U/ml penicillin, 100 μg/ml streptomycin and 10% inactivated fetal calf serum (FCS). The cells are seeded at 80′000 cells/well into 96-well black clear bottom sterile plates (Costar) which have been precoated with 1% gelatine in Hanks' Balanced Salt Solution (HBSS). All reagents are from Gibco BRL. The seeded plates are incubated overnight at 37° C. in 5% CO2.
(§3) Human orexin-A as an agonist is prepared as 1 mM stock solution in methanol:water (1:1), diluted in HBSS containing 0.1% bovine serum albumin (BSA) and 2 mM HEPES for use in the assay at a final concentration of 10 nM.
(§4) Antagonists are prepared as 10 mM stock solution in DMSO, then diluted in 96-well plates, first in DMSO, then in HBSS containing 0.1% bovine serum albumin (BSA) and 2 mM HEPES.
(§5) On the day of the assay, 100 μl of loading medium (HBSS containing 1% FCS, 2 mM HEPES, 5 mM probenecid (Sigma) and 3 μM of the fluorescent calcium indicator fluo-3 AM (1 mM stock solution in DMSO with 10% pluronic acid) (Molecular Probes) is added to each well.
(§6) The 96-well plates are incubated for 60 min at 37° C. in 5% CO2. The loading solution is then aspirated and cells are washed 3 times with 200 μl HBSS containing 2.5 mM probenecid, 0.1% BSA, 2 mM HEPES. 100 μl of that same buffer is left in each well. Within the Fluorescent Imaging Plate Reader (FLIPR, Molecular Devices), antagonists are added to the plate in a volume of 50 μl, incubated for 20 min and finally 100 μl of agonist is added. Fluorescence is measured for each well at 1 second intervals, and the height of each fluorescence peak is compared to the height of the fluorescence peak induced by 10 nM orexin-A with buffer in place of antagonist. For each antagonist, IC50 value (the concentration of compound needed to inhibit 50% of the agonistic response) is determined.
Background: Calcium assays in cells follow changes in intracellular calcium, usually with a dye or a luminescent sensor.

For another assay, the target named is T2, human orexin-2 receptor (Homo sapiens, UniProt O43614).
T2 construct: expressed in transfected cells; host or cells: CHO cells (grown under G418 selection)
T2 sequence (O43614 1-444): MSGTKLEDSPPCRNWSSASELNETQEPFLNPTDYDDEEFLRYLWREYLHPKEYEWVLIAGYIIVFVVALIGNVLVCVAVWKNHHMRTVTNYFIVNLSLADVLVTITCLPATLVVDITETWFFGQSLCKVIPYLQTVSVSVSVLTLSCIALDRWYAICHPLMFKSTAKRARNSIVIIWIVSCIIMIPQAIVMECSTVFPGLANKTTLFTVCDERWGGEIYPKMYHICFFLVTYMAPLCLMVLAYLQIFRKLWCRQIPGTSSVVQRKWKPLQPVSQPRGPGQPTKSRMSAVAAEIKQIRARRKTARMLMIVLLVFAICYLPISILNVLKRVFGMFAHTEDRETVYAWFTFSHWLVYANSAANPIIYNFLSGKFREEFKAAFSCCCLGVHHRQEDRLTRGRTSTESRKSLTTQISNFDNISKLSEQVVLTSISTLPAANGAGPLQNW
The description is as above. Format: cell-based. Particulars: CHO cells expressing human orexin-2 receptor; 10 nM orexin-A as agonist; fluo-3 AM calcium signal; read-out: OX2 IC50. How it is done: as §1, §2, §3, §4, §5, §6

As to `Cc1nc(C(=O)N2CCC2CNC(=O)c2c(C)nc3sccn23)c(-c2ccc(Cl)c(Cl)c2)s1` (racemic) [Example 32, (2RS)-6-Methyl-imidazo[2,1-b]thiazole-5-carboxylic acid{1-[5-(3,4-dichloro-phenyl)-2-methyl-thiazole-4-carbonyl]-azetidin-2-ylmethyl}-amide], the results for the 50% inhibitory concentration (IC50) at human orexin-1 receptor and on human orexin-2 receptor were 75 nM and 25 nM, respectively.

Take `Cc1cccc(-c2sc(C)nc2C(=O)N2CCC2CNC(=O)c2nc3scc(C)n3c2C)c1` (racemic) [Example 40, (2RS)-3,5-Dimethyl-imidazo[2,1-b]thiazole-6-carboxylic acid [1-(2-methyl-5-m-tolyl-thiazole-4-carbonyl)-azetidin-2-ylmethyl]-amide]: the half-inhibitory concentration (IC50) on human orexin-1 receptor turned out to be 11 nM; on human orexin-2 receptor it was 39 nM.

Turning to `Cc1cccc(-c2sc(C)nc2C(=O)N2CCC2CNC(=O)c2nc3sccn3c2C)c1` (racemic) [Example 42, (2RS)-5-Methyl-imidazo[2,1-b]thiazole-6-carboxylic acid [1-(2-methyl-5-m-tolyl-thiazole-4-carbonyl)-azetidin-2-ylmethyl]-amide], the half-maximal inhibitory concentration (IC50) at human orexin-1 receptor amounted to 85 nM; at human orexin-2 receptor it was 41 nM.

As for `Cc1cccc(-c2sc(C)nc2C(=O)N2CCC2CNC(=O)c2c(C(F)(F)F)nc3sccn23)c1` (racemic) [Example 50, (2RS)-6-Trifluoromethyl-imidazo[2,1-b]thiazole-5-carboxylic acid [1-(2-methyl-5-m-tolyl-thiazole-4-carbonyl)-azetidin-2-ylmethyl]-amide], the IC50 on human orexin-1 receptor was determined as 391 nM; at human orexin-2 receptor, 57 nM.

In the case of `Cc1cccc(-c2sc(C)nc2C(=O)N2CCC2CNC(=O)c2cccc3c2OCCN3C)c1` (racemic) [Example 54, (2RS)-4-Methyl-3,4-dihydro-2H-benzo[1,4]oxazine-8-carboxylic acid [1-(2-methyl-5-m-tolyl-thiazole-4-carbonyl)-azetidin-2-ylmethyl]-amide], the figures for the half-inhibitory concentration (IC50) on human orexin-1 receptor and at human orexin-2 receptor were 3100 nM and 13 nM, respectively.

With `Cc1cccc(-c2sc(C)nc2C(=O)N2CCC2CNC(=O)c2cccc3c2OCCC3)c1` (racemic) [Example 57, (2RS)-Chroman-8-carboxylic acid [1-(2-methyl-5-m-tolyl-thiazole-4-carbonyl)-azetidin-2-ylmethyl]-amide], the values for the IC50 on human orexin-1 receptor and at human orexin-2 receptor were 1200 nM and 19 nM, respectively.

`Cc1cccc(-c2sc(C)nc2C(=O)N2CCC2CNC(=O)c2cnc3scc(C)n23)c1` (racemic) [Example 61, (2RS)-3-Methyl-imidazo[2,1-b]thiazole-5-carboxylic acid [1-(2-methyl-5-m-tolyl-thiazole-4-carbonyl)-azetidin-2-ylmethyl]-amide]: the values for the concentration for half-maximal inhibition (IC50) on human orexin-1 receptor and on human orexin-2 receptor were 1920 nM and 43 nM, respectively.

As to `COc1ccccc1C(=O)N1CC[C@H]1CNC(=O)c1cccc2occc12` [Example 9, (2S)-benzofuran-4-carboxylic acid [1-(2-methoxy-benzoyl)-azetidin-2-ylmethyl]-amide], the IC50 on human orexin-1 receptor was determined as 88 nM; on human orexin-2 receptor it was 122 nM.

As to `Cc1nc(C(=O)N2CCC2CNC(=O)c2c(C)nc3sccn23)c(-c2cccc(F)c2)s1` (stereo not drawn) [Example 11, (2RS)-6-Methyl-imidazo[2,1-b]thiazole-5-carboxylic acid{1-[5-(3-fluoro-phenyl)-2-methyl-thiazole-4-carbonyl]-azetidin-2-ylmethyl}-amide], the half-maximal inhibitory concentration (IC50) on human orexin-1 receptor was 196 nM; at human orexin-2 receptor, 66 nM.

With `Cc1ccc(-c2ccccc2C(=O)N2CC[C@H]2CNC(=O)c2cccc3occc23)cc1C` [Example 15, (2S)-Benzofuran-4-carboxylic acid [1-(3′,4′-dimethyl-biphenyl-2-carbonyl)-azetidin-2-ylmethyl]-amide], the results for the IC50 on human orexin-1 receptor and at human orexin-2 receptor were 70 nM and 11 nM, respectively.

As to `Cc1cccc(-c2sc(C)nc2C(=O)N2CC[C@H]2CNC(=O)c2c(Cl)nc3sccn23)c1` [Example 21, (2S)-6-Chloro-imidazo[2,1-b]thiazole-5-carboxylic acid [1-(2-methyl-5-m-tolyl-thiazole-4-carbonyl)-azetidin-2-ylmethyl]-amide], the IC50 worked out at 41 nM at human orexin-1 receptor and 7 nM on human orexin-2 receptor.

Consider `Cc1cccc(-c2sc(N)nc2C(=O)N2CC[C@H]2CNC(=O)c2c(Cl)nc3sccn23)c1` [Example 22, (2S)-6-Chloro-imidazo[2,1-b]thiazole-5-carboxylic acid [1-(2-amino-5-m-tolyl-thiazole-4-carbonyl)-azetidin-2-ylmethyl]-amide], for which the IC50 at human orexin-1 receptor amounted to 10 nM; on human orexin-2 receptor, 5 nM.

Turning to `COc1ccc(-c2sc(C)nc2C(=O)N2CCC2CNC(=O)c2c(C)nc3sccn23)cc1` (stereo not drawn) [Example 28, (2RS)-6-Methyl-imidazo[2,1-b]thiazole-5-carboxylic acid{1-[5-(4-methoxy-phenyl)-2-methyl-thiazole-4-carbonyl]-azetidin-2-ylmethyl}-amide], the half-inhibitory concentration (IC50) was 89 nM on human orexin-1 receptor and 11 nM at human orexin-2 receptor.

For the compound `Cc1nc(C(=O)N2CCC2CNC(=O)c2c(C)nc3sccn23)c(-c2ccc(F)c(F)c2)s1` (stereo not drawn) [Example 67, (2RS)-6-Methyl-imidazo[2,1-b]thiazole-5-carboxylic acid{1-[5-(3,4-difluoro-phenyl)-2-methyl-thiazole-4-carbonyl]-azetidin-2-ylmethyl}-amide], the IC50 is 2010 nM on human orexin-1 receptor and 102 nM at human orexin-2 receptor.

For the compound `Cc1cccc(-c2oc(C)nc2C(=O)N2CCC2CNC(=O)c2c(C)nc3sccn23)c1` (stereo not drawn) [Example 83, (2RS)-6-Methyl-imidazo[2,1-b]thiazole-5-carboxylic acid [1-5-(2-methyl-5-m-tolyl-oxazole-4-carbonyl)-azetidin-2-ylmethyl]-amide], the IC50 amounted to 1640 nM on human orexin-1 receptor and 406 nM at human orexin-2 receptor.

For orientation: IC50 means the concentration that inhibits the measured activity by half.
